In ChEMBL document CHEMBL1141263, “Sesquiterpenoids and cytotoxic lignans from the bark of Libocedrus chevalieri” (J Nat Prod, 2007):

How the values were obtained:
[1] = system: KB; assay: Cytotoxicity against human KB cells by microculture tetrazolium assay; type: functional, cell-based
[2] = Inhibition of tubulin polymerization
[3] = system: L1210; assay: Cytotoxicity against mouse L1210 cells by microculture tetrazolium assay; type: functional, cell-based

Compound | IC50 [1] [µM] | IC50 [2] [µM] | IC50 [3] [µM]
COc1cc([C@@H]2c3cc4c(c(OC)c3[C@H](O)[C@H]3COC(=O)[C@H]23)OCO4)cc(OC)c1OC | 0.011 | 5 | –
COc1cc([C@@H]2c3cc4c(c(OC)c3[C@@H](O)[C@H]3COC(=O)[C@H]23)OCO4)cc(OC)c1OC | 0.045 | 9 | 82
